# From PMC12130737, “Taurine Alleviates Pancreatic β‐Cell Senescence by Inhibition of p53 Pathway” (Journal of Diabetes, 2025)
# Changes are numbered by the printed parent chain.
# Columns and labels:
# GFP-tagged CDKN2AIP [1] = biological target: T1, GFP-tagged CDKN2AIP (Homo sapiens, UniProt Q9NXV6); experiment: DARTS (proteinase K protection, immunoblot); assay type: biochemical; conditions: HEK293 cell lysate, GFP-tagged wild type
# T1 construct: GFP-tagged human CDKN2AIP expressed in HEK293 cells, cell lysate
# T1 sequence (Q9NXV6 2-580): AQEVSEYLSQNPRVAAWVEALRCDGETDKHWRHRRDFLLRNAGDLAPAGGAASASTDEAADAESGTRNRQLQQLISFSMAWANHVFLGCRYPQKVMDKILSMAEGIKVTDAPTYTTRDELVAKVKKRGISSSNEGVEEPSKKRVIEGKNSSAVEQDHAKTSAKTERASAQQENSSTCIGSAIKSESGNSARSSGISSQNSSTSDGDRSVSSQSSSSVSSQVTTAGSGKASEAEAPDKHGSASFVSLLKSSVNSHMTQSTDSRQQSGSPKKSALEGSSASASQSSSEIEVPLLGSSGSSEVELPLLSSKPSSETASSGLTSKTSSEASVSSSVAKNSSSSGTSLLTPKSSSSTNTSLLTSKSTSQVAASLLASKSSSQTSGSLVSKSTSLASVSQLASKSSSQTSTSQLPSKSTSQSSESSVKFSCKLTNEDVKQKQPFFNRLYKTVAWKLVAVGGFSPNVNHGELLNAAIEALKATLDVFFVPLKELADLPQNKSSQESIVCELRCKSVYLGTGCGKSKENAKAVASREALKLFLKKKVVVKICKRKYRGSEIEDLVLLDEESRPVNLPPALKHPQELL
# SLC6A6 [2] = biological target: T2, SLC6A6 (Mus musculus, UniProt O35316); experiment: DARTS (proteinase K protection, immunoblot); assay type: biochemical; conditions: MIN6 cell lysate, taurine 0-200 uM, pH 7.5, 1 h on ice; positive control
# T2 construct: endogenous protein in MIN6 cell lysate
# T2 sequence (O35316 1-621): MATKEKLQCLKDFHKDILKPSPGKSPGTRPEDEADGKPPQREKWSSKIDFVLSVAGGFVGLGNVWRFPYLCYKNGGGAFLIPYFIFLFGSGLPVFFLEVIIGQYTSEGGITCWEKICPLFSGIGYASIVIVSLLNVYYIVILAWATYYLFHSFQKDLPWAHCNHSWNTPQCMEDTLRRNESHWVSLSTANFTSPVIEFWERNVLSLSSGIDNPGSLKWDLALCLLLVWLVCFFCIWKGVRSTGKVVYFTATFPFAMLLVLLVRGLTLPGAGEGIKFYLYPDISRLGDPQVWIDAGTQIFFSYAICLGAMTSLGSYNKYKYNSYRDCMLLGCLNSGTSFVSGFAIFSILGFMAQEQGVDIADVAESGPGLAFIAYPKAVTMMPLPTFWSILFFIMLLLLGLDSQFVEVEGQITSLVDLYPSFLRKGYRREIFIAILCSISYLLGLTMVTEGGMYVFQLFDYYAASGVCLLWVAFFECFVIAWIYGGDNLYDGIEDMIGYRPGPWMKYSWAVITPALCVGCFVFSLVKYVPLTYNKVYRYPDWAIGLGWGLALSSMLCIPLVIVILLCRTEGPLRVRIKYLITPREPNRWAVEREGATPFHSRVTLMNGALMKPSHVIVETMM
# SLC6A6 [3] = biological target: T3, SLC6A6 (Rattus norvegicus, UniProt P31643); experiment: DARTS (proteinase K protection, immunoblot); assay type: biochemical; conditions: INS-1E cell lysate, taurine 0-200 uM, pH 7.5, 1 h on ice; positive control
# T3 construct: endogenous protein in INS-1E cell lysate
# T3 sequence (P31643 1-621): T2 sequence (O35316 1-621) with H151Q, T188A, N212H, D281N, G286E, L435V, V521I, L555V, V602A
# [4] = biological target: T4, CDKN2AIP recombinant protein (Homo sapiens, UniProt Q9NXV6); experiment: DARTS (proteinase K protection of recombinant protein); assay type: binding
# T4 construct: recombinant human CDKN2AIP
# T4 sequence (Q9NXV6 2-580): T1 sequence (Q9NXV6 2-580)
# GFP-tagged CDKN2AIP [5] = biological target: T5, GFP-tagged CDKN2AIP (Homo sapiens, UniProt Q9NXV6, P484A/L485A/K486A); experiment: DARTS (proteinase K protection, immunoblot); assay type: biochemical; conditions: HEK293 cell lysate, GFP-tagged triple mutant
# T5 construct: GFP-tagged human CDKN2AIP expressed in HEK293 cells, cell lysate
# T5 sequence (Q9NXV6 2-580 P484A/L485A/K486A): T1 sequence (Q9NXV6 2-580) with P483A, L484A, K485A
# CDKN2AIP [6] = biological target: T6, CDKN2AIP (Mus musculus, UniProt Q8BI72); experiment: DARTS (proteinase K protection, immunoblot); assay type: biochemical; conditions: MIN6 cell lysate, taurine 0-200 uM, pH 7.5, 1 h on ice
# T6 construct: endogenous protein in MIN6 cell lysate
# T6 sequence (Q8BI72 2-563): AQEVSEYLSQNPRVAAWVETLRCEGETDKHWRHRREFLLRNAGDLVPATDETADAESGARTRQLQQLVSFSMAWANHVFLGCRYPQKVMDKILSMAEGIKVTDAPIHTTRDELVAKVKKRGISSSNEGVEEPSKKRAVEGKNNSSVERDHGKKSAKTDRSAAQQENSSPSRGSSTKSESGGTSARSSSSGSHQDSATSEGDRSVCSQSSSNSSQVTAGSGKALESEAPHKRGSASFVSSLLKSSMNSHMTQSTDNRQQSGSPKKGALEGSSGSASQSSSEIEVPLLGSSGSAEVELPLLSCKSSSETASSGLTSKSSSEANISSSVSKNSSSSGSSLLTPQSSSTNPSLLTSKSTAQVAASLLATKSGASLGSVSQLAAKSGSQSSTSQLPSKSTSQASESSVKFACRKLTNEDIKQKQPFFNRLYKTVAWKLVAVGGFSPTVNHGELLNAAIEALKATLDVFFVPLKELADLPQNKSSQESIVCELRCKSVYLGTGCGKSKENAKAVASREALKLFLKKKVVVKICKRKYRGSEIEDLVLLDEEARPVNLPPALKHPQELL
# CDKN2AIP [7] = biological target: T7, CDKN2AIP (Rattus norvegicus, UniProt Q5U2X0); experiment: DARTS (proteinase K protection, immunoblot); assay type: biochemical; conditions: INS-1E cell lysate, taurine 0-200 uM, pH 7.5, 1 h on ice
# T7 construct: endogenous protein in INS-1E cell lysate
# T7 sequence (Q5U2X0 2-570): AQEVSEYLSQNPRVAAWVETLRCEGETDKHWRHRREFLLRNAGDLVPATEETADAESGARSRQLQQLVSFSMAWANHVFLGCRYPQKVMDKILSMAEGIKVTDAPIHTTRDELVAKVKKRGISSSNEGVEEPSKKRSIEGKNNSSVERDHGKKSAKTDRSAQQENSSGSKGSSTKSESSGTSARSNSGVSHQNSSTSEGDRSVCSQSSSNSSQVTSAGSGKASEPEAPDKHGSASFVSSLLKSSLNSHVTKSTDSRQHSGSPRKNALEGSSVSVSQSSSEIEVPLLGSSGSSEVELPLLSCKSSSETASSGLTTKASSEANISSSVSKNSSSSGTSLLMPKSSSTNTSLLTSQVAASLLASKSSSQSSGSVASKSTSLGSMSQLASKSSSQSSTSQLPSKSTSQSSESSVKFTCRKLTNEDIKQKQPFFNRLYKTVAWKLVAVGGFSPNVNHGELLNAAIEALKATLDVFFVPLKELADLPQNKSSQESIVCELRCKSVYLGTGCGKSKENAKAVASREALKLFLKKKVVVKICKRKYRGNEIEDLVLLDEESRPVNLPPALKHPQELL
smiles,measurement,setting,value
"NCCS(=O)(=O)O [taurine, 2‐aminoethanesulfonic acid]","DARTS (proteinase K protection, immunoblot)",GFP-tagged CDKN2AIP [1],DARTS experiments demonstrated that taurine bound to wild‐type CDKN2AIP
same,"DARTS (proteinase K protection, immunoblot)",SLC6A6 [2],taurine dose‐dependently prevented protease K‐induced degradation of CDKN2AIP and SLC6A6
same,"DARTS (proteinase K protection, immunoblot)",SLC6A6 [3],taurine dose‐dependently prevented protease K‐induced degradation of CDKN2AIP and SLC6A6
same,DARTS (proteinase K protection of recombinant protein),[4],Taurine also prevented proteinase K‐induced degradation of the CDKN2AIP recombinant protein
same,"DARTS (proteinase K protection, immunoblot)",GFP-tagged CDKN2AIP [5],taurine bound to wild‐type CDKN2AIP but not the CDKN2AIP‐triple mutant
same,"DARTS (proteinase K protection, immunoblot)",CDKN2AIP [6],taurine dose‐dependently prevented protease K‐induced degradation of CDKN2AIP and SLC6A6
same,"DARTS (proteinase K protection, immunoblot)",CDKN2AIP [7],taurine dose‐dependently prevented protease K‐induced degradation of CDKN2AIP and SLC6A6
